Square brackets hold non-standard residues; d marks the D form. Peptide text beside a SMILES is read from it. 2Nal = N[C@@H](Cc1ccc2ccccc2c1)C(=O)O; Cha = N[C@@H](CC1CCCCC1)C(=O)O; Aoc(2) = CCCCCC[C@H](N)C(=O)O; hSer = N[C@@H](CCO)C(=O)O; Nle = CCCC[C@H](N)C(=O)O; Orn = NCCC[C@H](N)C(=O)O; Dab = NCC[C@H](N)C(=O)O; Nva = CCC[C@H](N)C(=O)O; Dap = NC[C@H](N)C(=O)O
Key:
Erythrocyte = experiment: Hemolytic activity in human erythrocytes incubated for 1 hr by ELISA reader analysis; format: toxicity, cell-based
Escherichia coli = experiment: Antimicrobial activity against Escherichia coli ATCC 25922 assessed as reduction in microbial growth measured after 24 hrs by CLSI based broth microdilution method; format: functional

| Compound | HC10 (Erythrocyte) | MIC (Escherichia coli) |
| --- | --- | --- |
| CC[C@H](C)[C@H](NC(=O)[C@H](CCCNC(=N)N)NC(=O)[C@H](CCCCN)NC(=O)[C@H](CC(C)C)NC(=O)[C@H](C)NC(=O)CN)C(=O)N[C@@H](CCCCN)C(=O)N[C@H](C(=O)N[C@@H](CC(C)C)C(=O)N[C@@H](C)C(N)=O)[C@@H](C)O (H-GALKRIKTLA-NH2) | > 500 µM | 50 µM |
| CC(C)C[C@H](NC(=O)[C@H](C)NC(=O)CN)C(=O)N[C@@H](CCCCN)C(=O)N[C@@H](CCCNC(=N)N)C(=O)N[C@@H](Cc1ccc2ccccc2c1)C(=O)N[C@@H](CCCCN)C(=O)N[C@H](C(=O)N[C@@H](CC(C)C)C(=O)N[C@@H](C)C(N)=O)[C@@H](C)O (H-GALKR[2Nal]KTLA-NH2) | > 500 µM | > 200 µM |
| CC[C@H](C)[C@H](NC(=O)[C@H](CCCNC(=N)N)NC(=O)[C@H](CCCCN)NC(=O)[C@H](CC(C)C)NC(=O)[C@H](CC(C)C)NC(=O)CN)C(=O)N[C@@H](CCCCN)C(=O)N[C@@H](CO)C(=O)N[C@@H](CC(C)C)C(=O)N[C@@H](CC(C)C)C(N)=O (H-GLLKRIKSLL-NH2) | > 500 µM | 100 µM |
| CC[C@H](C)[C@H](NC(=O)[C@H](CCCNC(=N)N)NC(=O)[C@H](CO)NC(=O)[C@H](CC(C)C)NC(=O)[C@H](CC(C)C)NC(=O)CN)C(=O)N[C@@H](CCCCN)C(=O)N[C@H](C(=O)N[C@@H](CC(C)C)C(=O)N[C@@H](CC(C)C)C(N)=O)[C@@H](C)O (H-GLLSRIKTLL-NH2) | > 500 µM | 100 µM |
| CC[C@H](C)[C@H](NC(=O)[C@H](CCCNC(=N)N)NC(=O)[C@@H](NC(=O)[C@H](CC(C)C)NC(=O)[C@H](CC(C)C)NC(=O)CN)[C@@H](C)O)C(=O)N[C@@H](CCCCN)C(=O)N[C@H](C(=O)N[C@@H](CC(C)C)C(=O)N[C@@H](CC(C)C)C(N)=O)[C@@H](C)O (H-GLLTRIKTLL-NH2) | > 500 µM | 200 µM |
| CC[C@H](C)[C@H](NC(=O)[C@H](CCCNC(=N)N)NC(=O)[C@H](CCN)NC(=O)[C@H](CC(C)C)NC(=O)[C@H](CC(C)C)NC(=O)CN)C(=O)N[C@@H](CCCCN)C(=O)N[C@H](C(=O)N[C@@H](CC(C)C)C(=O)N[C@@H](CC(C)C)C(N)=O)[C@@H](C)O (H-GLL[Dab]RIKTLL-NH2) | > 500 µM | 75 µM |
| CC[C@H](C)[C@H](NC(=O)[C@H](CCCNC(=N)N)NC(=O)[C@H](CCN)NC(=O)[C@H](CC(C)C)NC(=O)[C@H](CC(C)C)NC(=O)CN)C(=O)N[C@@H](CCCCN)C(=O)N[C@@H](CCN)C(=O)N[C@@H](CC(C)C)C(=O)N[C@@H](CC(C)C)C(N)=O (H-GLL[Dab]RIK[Dab]LL-NH2) | > 500 µM | > 200 µM |
| CC[C@H](C)[C@H](NC(=O)[C@H](CCCNC(=N)N)NC(=O)[C@H](CN)NC(=O)[C@H](CC(C)C)NC(=O)[C@H](CC(C)C)NC(=O)CN)C(=O)N[C@@H](CCCCN)C(=O)N[C@H](C(=O)N[C@@H](CC(C)C)C(=O)N[C@@H](CC(C)C)C(N)=O)[C@@H](C)O (H-GLL[Dap]RIKTLL-NH2) | > 500 µM | 100 µM |
| CC[C@H](C)[C@H](NC(=O)[C@H](CCCNC(=N)N)NC(=O)[C@H](CCCN)NC(=O)[C@H](CC(C)C)NC(=O)[C@H](CC(C)C)NC(=O)CN)C(=O)N[C@@H](CCCCN)C(=O)N[C@H](C(=O)N[C@@H](CC(C)C)C(=O)N[C@@H](CC(C)C)C(N)=O)[C@@H](C)O (H-GLL[Orn]RIKTLL-NH2) | > 500 µM | 100 µM |
| CC[C@H](C)[C@H](NC(=O)[C@H](CCCNC(=N)N)NC(=O)[C@H](CCO)NC(=O)[C@H](CC(C)C)NC(=O)[C@H](CC(C)C)NC(=O)CN)C(=O)N[C@@H](CCCCN)C(=O)N[C@H](C(=O)N[C@@H](CC(C)C)C(=O)N[C@@H](CC(C)C)C(N)=O)[C@@H](C)O (H-GLL[hSer]RIKTLL-NH2) | > 500 µM | 150 µM |
| CC[C@H](C)[C@H](NC(=O)[C@H](CCCNC(=N)N)NC(=O)[C@H](CCCCN)NC(=O)[C@H](CCSC)NC(=O)[C@H](CC(C)C)NC(=O)CN)C(=O)N[C@@H](CCCCN)C(=O)N[C@H](C(=O)N[C@@H](CCSC)C(=O)N[C@@H](CC(C)C)C(N)=O)[C@@H](C)O (H-GLMKRIKTML-NH2) | > 500 µM | > 200 µM |
| CCC[C@H](NC(=O)[C@H](CC(C)C)NC(=O)CN)C(=O)N[C@@H](CCCCN)C(=O)N[C@@H](CCCNC(=N)N)C(=O)N[C@@H](Cc1ccc2ccccc2c1)C(=O)N[C@@H](CCCCN)C(=O)N[C@H](C(=O)N[C@@H](CCC)C(=O)N[C@@H](CC(C)C)C(N)=O)[C@@H](C)O (H-GL[Nva]KR[2Nal]KT[Nva]L-NH2) | > 500 µM | 100 µM |
| CC[C@H](C)[C@H](NC(=O)[C@H](CCCNC(=N)N)NC(=O)[C@H](CCCCN)NC(=O)[C@H](CC(C)C)NC(=O)[C@H](CCSC)NC(=O)CN)C(=O)N[C@@H](CCCCN)C(=O)N[C@H](C(=O)N[C@@H](CC(C)C)C(=O)N[C@@H](CC(C)C)C(N)=O)[C@@H](C)O (H-GMLKRIKTLL-NH2) | 400 µM | 200 µM |
| CC[C@H](C)[C@H](NC(=O)[C@H](CCCNC(=N)N)NC(=O)[C@H](CCCCN)NC(=O)[C@H](CC(C)C)NC(=O)[C@H](CCSC)NC(=O)CN)C(=O)N[C@@H](CCCCN)C(=O)N[C@H](C(=O)N[C@@H](CC(C)C)C(=O)N[C@@H](CCSC)C(N)=O)[C@@H](C)O (H-GMLKRIKTLM-NH2) | 500 µM | > 200 µM |
| CC[C@H](C)[C@H](NC(=O)[C@H](CCCNC(=N)N)NC(=O)[C@H](CCCCN)NC(=O)[C@H](CCSC)NC(=O)[C@H](CCSC)NC(=O)CN)C(=O)N[C@@H](CCCCN)C(=O)N[C@H](C(=O)N[C@@H](CCSC)C(=O)N[C@@H](CCSC)C(N)=O)[C@@H](C)O (H-GMMKRIKTMM-NH2) | > 500 µM | > 200 µM |
| CC[C@H](C)[C@H](NC(=O)[C@H](CCCNC(=N)N)NC(=O)[C@H](CCCCN)NC(=O)[C@H](CC(C)C)NC(=O)[C@H](COC)NC(=O)CN)C(=O)N[C@@H](CCCCN)C(=O)N[C@H](C(=O)N[C@@H](CC(C)C)C(=O)N[C@@H](CC(C)C)C(N)=O)[C@@H](C)O (H-GS(Me)LKRIKTLL-NH2) | > 500 µM | > 200 µM |
| CC[C@H](C)[C@H](NC(=O)[C@H](CCCNC(=N)N)NC(=O)[C@H](CCCCN)NC(=O)[C@H](CC(C)C)NC(=O)[C@H](COC)NC(=O)CN)C(=O)N[C@@H](CCCCN)C(=O)N[C@H](C(=O)N[C@@H](CC(C)C)C(=O)N[C@@H](COC)C(N)=O)[C@@H](C)O (H-GS(Me)LKRIKTLS(Me)-NH2) | > 500 µM | > 200 µM |
| CC[C@H](C)[C@H](NC(=O)[C@H](CCCNC(=N)N)NC(=O)[C@H](CCCCN)NC(=O)[C@H](COC)NC(=O)[C@H](COC)NC(=O)CN)C(=O)N[C@@H](CCCCN)C(=O)N[C@H](C(=O)N[C@@H](COC)C(=O)N[C@@H](COC)C(N)=O)[C@@H](C)O (H-GS(Me)S(Me)KRIKTS(Me)S(Me)-NH2) | > 500 µM | 12.5 µM |
| CC[C@H](C)[C@H](NC(=O)[C@H](CCCNC(=N)N)NC(=O)[C@H](CCCCN)NC(=O)[C@H](CC(C)C)NC(=O)[C@@H](NC(=O)CN)C(C)C)C(=O)N[C@@H](CCCCN)C(=O)N[C@H](C(=O)N[C@@H](CC(C)C)C(=O)N[C@H](C(N)=O)C(C)C)[C@@H](C)O (H-GVLKRIKTLV-NH2) | > 500 µM | > 200 µM |
| CC[C@H](C)[C@H](NC(=O)[C@H](CCCNC(=N)N)NC(=O)[C@H](CCCCN)NC(=O)[C@@H](NC(=O)[C@@H](NC(=O)CN)C(C)C)C(C)C)C(=O)N[C@@H](CCCCN)C(=O)N[C@H](C(=O)N[C@H](C(=O)N[C@H](C(N)=O)C(C)C)C(C)C)[C@@H](C)O (H-GVVKRIKTVV-NH2) | > 500 µM | > 200 µM |
| CC[C@H](C)[C@H](NC(=O)[C@H](CCCNC(=N)N)NC(=O)[C@H](CCCCN)NC(=O)[C@H](Cc1ccc2ccccc2c1)NC(=O)CN)C(=O)N[C@@H](CCCCN)C(=O)N[C@H](C(=O)N[C@@H](CC(C)C)C(=O)N[C@@H](CC(C)C)C(N)=O)[C@@H](C)O (H-G[2Nal]KRIKTLL-NH2) | 300 µM | 6.25 µM |
| CCCCCC[C@H](NC(=O)[C@H](CC(C)C)NC(=O)[C@@H](NC(=O)[C@H](CCCCN)NC(=O)[C@@H](NC(=O)[C@H](CCCNC(=N)N)NC(=O)[C@H](CCCCN)NC(=O)[C@H](CC(C)C)NC(=O)[C@H](CCCCCC)NC(=O)CN)[C@@H](C)CC)[C@@H](C)O)C(N)=O (H-G[Aoc(2)]LKRIKTL[Aoc(2)]-NH2) | 71 µM | 6.25 µM |
| CCCCCC[C@H](NC(=O)[C@H](CCCCCC)NC(=O)[C@@H](NC(=O)[C@H](CCCCN)NC(=O)[C@@H](NC(=O)[C@H](CCCNC(=N)N)NC(=O)[C@H](CCCCN)NC(=O)[C@H](CCCCCC)NC(=O)[C@H](CCCCCC)NC(=O)CN)[C@@H](C)CC)[C@@H](C)O)C(N)=O (H-G[Aoc(2)][Aoc(2)]KRIKT[Aoc(2)][Aoc(2)]-NH2) | 20 µM | – |
| CC[C@H](C)[C@H](NC(=O)[C@H](CCCNC(=N)N)NC(=O)[C@H](CCCCN)NC(=O)[C@H](CC(C)C)NC(=O)[C@H](CC1CCCCC1)NC(=O)CN)C(=O)N[C@@H](CCCCN)C(=O)N[C@H](C(=O)N[C@@H](CC1CCCCC1)C(=O)N[C@@H](CC(C)C)C(N)=O)[C@@H](C)O (H-G[Cha]LKRIKT[Cha]L-NH2) | 120 µM | 12.5 µM |
| CCCC[C@H](NC(=O)[C@H](CC(C)C)NC(=O)[C@@H](NC(=O)[C@H](CCCCN)NC(=O)[C@@H](NC(=O)[C@H](CCCNC(=N)N)NC(=O)[C@H](CCCCN)NC(=O)[C@H](CC(C)C)NC(=O)[C@H](CCCC)NC(=O)CN)[C@@H](C)CC)[C@@H](C)O)C(N)=O (H-G[Nle]LKRIKTL[Nle]-NH2) | > 500 µM | 100 µM |
| CCCC[C@H](NC(=O)[C@H](CCCC)NC(=O)[C@@H](NC(=O)[C@H](CCCCN)NC(=O)[C@@H](NC(=O)[C@H](CCCNC(=N)N)NC(=O)[C@H](CCCCN)NC(=O)[C@H](CCCC)NC(=O)[C@H](CCCC)NC(=O)CN)[C@@H](C)CC)[C@@H](C)O)C(N)=O (H-G[Nle][Nle]KRIKT[Nle][Nle]-NH2) | > 500 µM | 100 µM |
| CCC[C@H](NC(=O)[C@H](CC(C)C)NC(=O)[C@@H](NC(=O)[C@H](CCCCN)NC(=O)[C@@H](NC(=O)[C@H](CCCNC(=N)N)NC(=O)[C@H](CCCCN)NC(=O)[C@H](CC(C)C)NC(=O)[C@H](CCC)NC(=O)CN)[C@@H](C)CC)[C@@H](C)O)C(N)=O (H-G[Nva]LKRIKTL[Nva]-NH2) | > 500 µM | > 200 µM |

— ChEMBL document CHEMBL5608163, “Structure modification of anoplin for fighting resistant bacteria” (Eur J Med Chem, 2024)
